US20260365647A1, “AKT1 MODULATORS” (Alterome Therapeutics, Inc., priority 2022, published 2026)
pIC50: −log10 of the molar value.

Biological target: T1, AKT1-E17K (Homo sapiens, UniProt P31749, E17K)
T1 construct: host or cells: HEK-293 (ATCC CRL-1573)
Assay: NanoBRET Target Engagement (TE) Assay
Type: cell-based
Procedure, shortened: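 Live cells transiently expressing NanoLuc-AKT1 E17K fusion, incubated 2 h with tracer and compound before substrate plus extracellular NanoLuc inhibitor were added. BRET read at 450/600 nm; EC50 from variable-slope sigmoidal fit of tracer displacement.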

T1 sequence (P31749 whole entry E17K): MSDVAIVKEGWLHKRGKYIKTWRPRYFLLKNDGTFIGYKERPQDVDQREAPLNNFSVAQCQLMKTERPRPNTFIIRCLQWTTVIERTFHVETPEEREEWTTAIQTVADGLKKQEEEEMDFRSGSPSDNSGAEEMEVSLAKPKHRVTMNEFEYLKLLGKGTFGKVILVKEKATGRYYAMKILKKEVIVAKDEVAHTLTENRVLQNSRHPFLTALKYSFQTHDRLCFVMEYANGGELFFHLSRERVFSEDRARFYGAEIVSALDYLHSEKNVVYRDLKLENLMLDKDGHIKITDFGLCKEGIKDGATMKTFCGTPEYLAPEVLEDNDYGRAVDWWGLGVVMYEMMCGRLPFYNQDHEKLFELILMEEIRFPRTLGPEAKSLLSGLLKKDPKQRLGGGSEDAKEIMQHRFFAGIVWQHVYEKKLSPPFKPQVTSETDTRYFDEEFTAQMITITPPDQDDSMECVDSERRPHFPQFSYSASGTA

SMILES | pIC50
Nc1ncccc1-c1nc2ccc(-c3ccccc3)nc2n1-c1ccc(CN2CCC(NC(=O)c3ccc(C=O)c(O)c3)CC2)cc1 [Example 8, N-(1-(4-(2-(2-Aminopyridin-3-yl)-5-phenyl-3H-imidazo[4,5-b]pyridin-3-yl)benzyl)piperidin-4-yl)-4-formyl-3-hydroxybenzamide] | 6.22 to 7.22
Nc1ncccc1-c1nc2ccc(-c3ccccc3)nc2n1-c1ccc(CN2CCC[C@@H](NC(=O)c3ccc(C=O)c(O)c3)C2)cc1 [Example 63, (R)—N-(1-(4-(2-(2-Aminopyridin-3-yl)-5-phenyl-3H-imidazo[4,5-b]pyridin-3-yl)benzyl)piperidin-3-yl)-4-formyl-3-hydroxybenzamide] | 6.22 to 7.22
Nc1ncccc1-c1nc2ccc(-c3ccccc3)nc2n1-c1ccc(CN2CC(NC(=O)c3ccc(O)c(C=O)c3)C2)cc1 [Example 61, N-(1-(4-(2-(2-Aminopyridin-3-yl)-5-phenyl-3H-imidazo[4,5-b]pyridin-3-yl)benzyl)azetidin-3-yl)-3-formyl-4-hydroxybenzamide] | 7.22 to 7.82
Nc1ncccc1-c1nc2ccc(-c3ccccc3)nc2n1-c1ccc(CN2CCC3(CC2)CN(C(=O)c2ccc(O)c(C=O)c2)C3)cc1 [Example 67, 5-(7-(4-(2-(2-Aminopyridin-3-yl)-5-phenyl-3H-imidazo[4,5-b]pyridin-3-yl)benzyl)-2,7-diazaspiro[3.5]nonane-2-carbonyl)-2-hydroxybenzaldehyde] | 6.22 to 7.22
Nc1ncccc1-c1nc2ccc(-c3cccc(=O)[nH]3)nc2n1-c1ccc(CN2CCN(C(=O)c3ccc(C=O)c(O)c3)CC2)cc1 [Example 46, 4-(4-(4-(2-(2-Aminopyridin-3-yl)-5-(6-oxo-1,6-dihydropyridin-2-yl)-3H-imidazo[4,5-b]pyridin-3-yl)benzyl)piperazine-1-carbonyl)-2-hydroxybenzaldehyde] | < 6.22
Nc1ncccc1-c1nc2ccc(C3=CCOCC3)nc2n1-c1ccc(CN2CCN(C(=O)c3ccc(C=O)c(O)c3)CC2)cc1 [Example 30, 4-(4-(4-(2-(2-Aminopyridin-3-yl)-5-(3,6-dihydro-2H-pyran-4-yl)-3H-imidazo[4,5-b]pyridin-3-yl)benzyl)piperazine-1-carbonyl)-2-hydroxybenzaldehyde] | 6.22 to 7.22
N#Cc1ccccc1-c1ccc2nc(-c3cccnc3N)n(-c3ccc(CN4CCN(C(=O)c5ccc(O)c(C=O)c5)CC4)cc3)c2n1 [Example 36, 2-(2-(2-aminopyridin-3-yl)-3-(4-((4-(3-formyl-4-hydroxybenzoyl)piperazin-1-yl)methyl)phenyl)-3H-imidazo[4,5-b]pyridin-5-yl)benzonitrile] | < 6.22
CN(C(=O)c1ccc(C=O)c(O)c1)C1CCN(Cc2ccc(-n3c(-c4cccnc4N)nc4ccc(-c5ccccc5)nc43)cc2)CC1 [Example 60, N-(1-(4-(2-(2-Aminopyridin-3-yl)-5-phenyl-3H-imidazo[4,5-b]pyridin-3-yl)benzyl)piperidin-4-yl)-4-formyl-3-hydroxy-N-methylbenzamide] | 6.22 to 7.22
Nc1ncccc1-c1nc2ccc(-c3ccccc3)nc2n1-c1ccc(CN2CCC3(C2)CN(c2ccc(C=O)c(O)c2)C3)cc1 [Example 79, 4-(6-(4-(2-(2-Aminopyridin-3-yl)-5-phenyl-3H-imidazo[4,5-b]pyridin-3-yl)benzyl)-2,6-diazaspiro[3.4]octan-2-yl)-2-hydroxybenzaldehyde] | 7.22 to 7.82
Nc1ncccc1-c1nc2ccc(-c3ccccc3)nc2n1-c1ccc(CN2CCN(c3cc(O)c(C=O)cc3Br)CC2)cc1 [Example 27, 4-(4-(4-(2-(2-Aminopyridin-3-yl)-5-phenyl-3H-imidazo[4,5-b]pyridin-3-yl)benzyl)piperazin-1-yl)-5-bromo-2-hydroxybenzaldehyde] | 6.22 to 7.22
Nc1ncccc1-c1nc2ccc(-c3ccccc3)nc2n1-c1ccc(CN2CCC3(CCN(C(=O)c4ccc(C=O)c(O)c4)C3)C2)cc1 (stereo not drawn) [Example 81, 4-(7-(4-(2-(2-Aminopyridin-3-yl)-5-phenyl-3H-imidazo[4,5-b]pyridin-3-yl)benzyl)-2,7-diazaspiro[4.4]nonane-2-carbonyl)-2-hydroxybenzaldehyde] | 6.22 to 7.22
Nc1ncccc1-c1nc2ccc(-c3ccccc3)nc2n1-c1ccc(CN2C[C@H]3C[C@@H]2CN3C(=O)c2ccc(C=O)c(O)c2)cc1 [Example 56, 4-((1R,4R)-5-(4-(2-(2-Aminopyridin-3-yl)-5-phenyl-3H-imidazo[4,5-b]pyridin-3-yl)benzyl)-2,5-diazabicyclo[2.2.1]heptane-2-carbonyl)-2-hydroxybenzaldehyde] | 6.22 to 7.22
Nc1ncccc1-c1nc2ccc(-c3ccccc3)nc2n1-c1ccc(CN2CCN(c3cc(O)c(C=O)cc3F)CC2)cc1 [Example 25, 4-(4-(4-(2-(2-Aminopyridin-3-yl)-5-phenyl-3H-imidazo[4,5-b]pyridin-3-yl)benzyl)piperazin-1-yl)-5-fluoro-2-hydroxybenzaldehyde] | 7.22 to 7.82
Nc1ncccc1-c1nc2ccc(-c3ccccc3)nc2n1-c1ccc(CN2CCC3(CCCN(C(=O)c4ccc(C=O)c(O)c4)C3)C2)cc1 (stereo not drawn) [Example 87, 4-(2-(4-(2-(2-Aminopyridin-3-yl)-5-phenyl-3H-imidazo[4,5-b]pyridin-3-yl)benzyl)-2,7-diazaspiro[4.5]decane-7-carbonyl)-2-hydroxybenzaldehyde] | 6.22 to 7.22

The next lines start with the values.

pIC50 | SMILES
< 6.22 | Nc1ncccc1-c1nc2ccc(-c3ccccc3)nc2n1-c1ccc(CN2CC3CCC(C2)N3c2ccc(C=O)c(O)c2)cc1 [Example 111, 4-(3-(4-(2-(2-Aminopyridin-3-yl)-5-phenyl-3H-imidazo[4,5-b]pyridin-3-yl)benzyl)-3,8-diazabicyclo[3.2.1]octan-8-yl)-2-hydroxybenzaldehyde]
6.22 to 7.22 | Nc1ncccc1-c1nc2ccc(-c3ccccc3)nc2n1-c1ccc(CN2CC3(CCN(C(=O)c4ccc(O)c(C=O)c4)CC3)C2)cc1 [Example 95, 5-(2-(4-(2-(2-Aminopyridin-3-yl)-5-phenyl-3H-imidazo[4,5-b]pyridin-3-yl)benzyl)-2,7-diazaspiro[3.5]nonane-7-carbonyl)-2-hydroxybenzaldehyde]
6.22 to 7.22 | Nc1ncccc1-c1nc2ccc(-c3ccccc3)nc2n1-c1ccc(CN2CC[C@@]3(CCN(c4ccc(C=O)c(O)c4)C3)C2)cc1 [Example 100, (R)-4-(7-(4-(2-(2-Aminopyridin-3-yl)-5-phenyl-3H-imidazo[4,5-b]pyridin-3-yl)benzyl)-2,7-diazaspiro[4.4]nonan-2-yl)-2-hydroxybenzaldehyde]
6.22 to 7.22 | Nc1ncccc1-c1nc2ccc(-c3ccccc3)nc2n1-c1ccc(CN2C[C@H]3CN(C(=O)c4ccc(C=O)c(O)c4)C[C@@H]3C2)cc1 [Example 136, 4-((3aS,6aS)-5-(4-(2-(2-Aminopyridin-3-yl)-5-phenyl-3H-imidazo[4,5-b]pyridin-3-yl)benzyl)octahydropyrrolo[3,4-c]pyrrole-2-carbonyl)-2-hydroxybenzaldehyde]
6.22 to 7.22 | Nc1ncccc1-c1nc2ccc(-c3ccccc3)nc2n1-c1ccc(CN2C[C@@H]3C[C@H]2CN3C(=O)c2ccc(O)c(C=O)c2)cc1 [Example 121, 5-((1S,4S)-5-(4-(2-(2-Aminopyridin-3-yl)-5-phenyl-3H-imidazo[4,5-b]pyridin-3-yl)benzyl)-2,5-diazabicyclo[2.2.1]heptane-2-carbonyl)-2-hydroxybenzaldehyde]
< 6.22 | Nc1ncccc1-c1nc2ccc(-c3ccccc3)nc2n1-c1ccc(CN2CC3CCC(C2)N3C(=O)c2ccc(O)c(C=O)c2)cc1 [Example 110, 5-(3-(4-(2-(2-Aminopyridin-3-yl)-5-phenyl-3H-imidazo[4,5-b]pyridin-3-yl)benzyl)-3,8-diazabicyclo[3.2.1]octane-8-carbonyl)-2-hydroxybenzaldehyde]
6.22 to 7.22 | Nc1ncccc1-c1nc2ccc(-c3ccccc3)nc2n1-c1ccc(CN2C[C@@H]3CN(C(=O)c4ccc(O)c(C=O)c4)C[C@@H]3C2)cc1 [Example 131, 5-((3aR,6aS)-5-(4-(2-(2-Aminopyridin-3-yl)-5-phenyl-3H-imidazo[4,5-b]pyridin-3-yl)benzyl)octahydropyrrolo[3,4-c]pyrrole-2-carbonyl)-2-hydroxybenzaldehyde]
< 6.22 | Nc1ncccc1-c1nc2ccc(-c3ccccc3)nc2n1-c1ccc(CN2C3CCC2CN(C(=O)c2ccc(O)c(C=O)c2)C3)cc1 [Example 112, 5-(8-(4-(2-(2-Aminopyridin-3-yl)-5-phenyl-3H-imidazo[4,5-b]pyridin-3-yl)benzyl)-3,8-diazabicyclo[3.2.1]octane-3-carbonyl)-2-hydroxybenzaldehyde]
6.22 to 7.22 | C[C@H]1CN(Cc2ccc(-n3c(-c4cccnc4N)nc4ccc(-c5ccccc5)nc43)cc2)CCN1C(=O)c1ccc(O)c(C=O)c1 [Example 105, (S)-5-(4-(4-(2-(2-Aminopyridin-3-yl)-5-phenyl-3H-imidazo[4,5-b]pyridin-3-yl)benzyl)-2-methylpiperazine-1-carbonyl)-2-hydroxybenzaldehyde]
7.22 to 7.82 | Nc1ncccc1-c1nc2ccc(-c3ccccc3)nc2n1-c1ccc(CN2CCCN(C(=O)c3ccc(O)c(C=O)c3)CC2)cc1 [Example 119, 5-(4-(4-(2-(2-Aminopyridin-3-yl)-5-phenyl-3H-imidazo[4,5-b]pyridin-3-yl)benzyl)-1,4-diazepane-1-carbonyl)-2-hydroxybenzaldehyde]
6.22 to 7.22 | Nc1ncccc1-c1nc2ccc(-c3ccccc3)nc2n1-c1ccc(CN2CC3CCC2CN3C(=O)c2ccc(C=O)c(O)c2)cc1 (stereo not drawn) [Example 125, 4-(5-(4-(2-(2-aminopyridin-3-yl)-5-phenyl-3H-imidazo[4,5-b]pyridin-3-yl)benzyl)-2,5-diazabicyclo[2.2.2]octane-2-carbonyl)-2-hydroxybenzaldehyde]
6.22 to 7.22 | Nc1ncccc1-c1nc2ccc(-c3ccccc3)nc2n1-c1ccc(CN2CCC(Oc3cccc(O)c3C=O)CC2)cc1 [Example 128, 2-((1-(4-(2-(2-Aminopyridin-3-yl)-5-phenyl-3H-imidazo[4,5-b]pyridin-3-yl)benzyl)piperidin-4-yl)oxy)-6-hydroxybenzaldehyde]
< 6.22 | Nc1ncccc1-c1nc2ccc(-c3ccccc3)nc2n1-c1ccc(COc2ccc(O)c(C=O)c2)cc1 [Example 139, 5-((4-(2-(2-Aminopyridin-3-yl)-5-phenyl-3H-imidazo[4,5-b]pyridin-3-yl)benzyl)oxy)-2-hydroxybenzaldehyde]
